Active and inactive are the calls of the source. The calls are words filed in the database; no cut-off is given here.
Legend:
[1] = test system: AML12; assay: Cytoprotective activity against CoCl2-induced mouse AML12 cells assessed as increase in cell survival rate by CCK8 method; assay type: functional, cell-based
[2] = test system: AML12; assay: Cytotoxicity against mouse AML12 cells assessed as reduction in cell survival rate at by CCK8 assay; assay type: toxicity, cell-based
[3] = test system: AML12; assay: Cytoprotective activity against CoCl2-induced mouse AML12 cells assessed as increased cell survival rate at 1.25 to 10 uM by CCK8 assay; assay type: functional, cell-based; settings: dose 1.25-10 µM
[4] = test system: Mus musculus; assay: Hepatoprotective activity against ischemia-reperfusion injury mouse model assessed as reduction in ALT level in serum at 10 mg/kg, ip administered once daily for 3 days; assay type: functional, organism-based; settings: time 3.0 day
[5] = test system: Mus musculus; assay: Hepatoprotective activity against ischemia-reperfusion injury mouse model assessed as reduction in AST level in serum at 10 mg/kg, ip administered once daily for 3 days; assay type: functional, organism-based; settings: time 3.0 day
[6] = test system: Mus musculus; assay: Hepatoprotective activity against ischemia-reperfusion injury mouse model assessed as reduction in LDH level in serum at 10 mg/kg, ip administered once daily for 3 days; assay type: functional, organism-based; settings: time 3.0 day
[7] = species on record: Mus musculus; assay: Hepatoprotective activity against ischemia-reperfusion injury mouse model assessed as reduction in liver ecchymosis by H and E staining based analysis; assay type: functional, organism-based
[8] = species on record: Mus musculus; assay: Hepatoprotective activity against ischemia-reperfusion injury mouse model assessed as reduction in leukocyte infiltration by H and E staining based analysis; assay type: functional, organism-based
[9] = species on record: Mus musculus; assay: Hepatoprotective activity against ischemia-reperfusion injury mouse model assessed as reduction in necrocytosis by H and E staining based analysis; assay type: functional, organism-based
[10] = species on record: Mus musculus; assay: Hepatoprotective activity against ischemia-reperfusion injury mouse model assessed as reduction in TUNEL positive cells by TUNEL staining based analysis; assay type: functional, organism-based
[11] = species on record: Mus musculus; assay: Hepatoprotective activity against ischemia-reperfusion injury mouse model assessed as reduction in cleaved caspase-3 by IHC staining based analysis; assay type: functional, organism-based
[12] = species on record: Mus musculus; assay: Hepatoprotective activity against ischemia-reperfusion injury mouse model assessed as reduction in MPO expression level by IHC staining based analysis; assay type: functional, organism-based
[13] = species on record: Mus musculus; assay: Hepatoprotective activity against ischemia-reperfusion injury mouse model assessed as reduction in translocation of HMGB1 from nucleus to cytoplasm by IHC staining based analysis; assay type: functional, organism-based

**Q.** Which Activity [1] does the source give for C/C=C1\NC(=O)[C@H](Cc2c[nH]c3ccccc23)N(C)C1=O here?
**A.** The Activity was “inactive”.

**Q.** For C=CC(C)(C)C(=O)Nc1c(C(=O)C[C@@H]2NC(=O)[C@@H]3CCCN3C2=O)ccc(O)c1CC=C(C)C, which Activity [1] is on record?
**A.** Its Activity is “inactive”.

**Q.** Which Activity [1] does the source give for C=CC(C)(C)[C@@]1(C[C@@H]2NC(=O)[C@]3(OC)CCCN3C2=O)C(=O)Nc2c1ccc1c2C=CC(C)(C)O1 here?
**A.** Its Activity is “inactive”.

**Q.** How did the Activity [1] turn out when C=CC(C)(C)[C@]1(C[C@@H]2NC(=O)[C@@H]3CCCN3C2=O)C(=O)Nc2c1ccc(O)c2CC=C(C)C was run?
**A.** The Activity was “inactive”.

**Q.** With CC1(C)C=Cc2c(ccc3c2N(O)C(=O)[C@@]32C[C@@]34NC(=O)[C@]5(CCCN5C3=O)C[C@H]4C2(C)C)O1 as the compound, how does the Activity [1] read?
**A.** The Activity was “inactive”.

**Q.** CC1(C)C=Cc2c(ccc3c2NC(=O)[C@@]32C[C@@]34NC(=O)[C@]5(CCCN5C3=O)C[C@H]4C2(C)C)O1 was tested. Which Activity [1] did it give?
**A.** The Activity was “inactive”.

**Q.** C=CC(C)(C)[C@]1(C[C@@H]2NC(=O)[C@]3(OC)CCCN3C2=O)C(=O)Nc2c1ccc1c2C=CC(C)(C)O1 [NOTOAMIDE Q] was tested. Which Activity [1] did it give?
**A.** Its Activity is “Active”.

**Q.** And the Activity [2]?
**A.** The Activity was “Non-Toxic”.

**Q.** And the Activity [3]?
**A.** The Activity was “Active”.

**Q.** What about the Activity [4] of the same compound?
**A.** The Activity was “Active”.

**Q.** And the Activity [5]?
**A.** Its Activity is “Active”.

**Q.** And the Activity [6]?
**A.** Its Activity is “Active”.

**Q.** What about the Activity [7] of the same compound?
**A.** The Activity was “Active”.

**Q.** And the Activity [8]?
**A.** The Activity was “Active”.

**Q.** And the Activity [9]?
**A.** The Activity was “Active”.

**Q.** And the Activity [10]?
**A.** The Activity was “Active”.

**Q.** And the Activity [11]?
**A.** Its Activity is “Active”.

**Q.** And the Activity [12]?
**A.** Its Activity is “Active”.

**Q.** And the Activity [13]?
**A.** Its Activity is “Active”.
